Our source for the T/C values is PubChem BioAssay AID288 (DTP/NCI, 2004).

The structures appear in SMILES notation. “And” between values parts separate entries of the source, which are not always exact repeats. Equal values may be shown once. Records with an inconclusive call do not appear.

In the experiment the test system is BDF1 mice, M5076 sarcoma s.c., survival/tumor T/C. Nature of the experiment: NCI In Vivo Anticancer Drug Screen. Data for tumor model Sarcoma M5076 (subcutaneous) in B6D2F1 (BDF1) mice. The protocol:
The antitumor activity of compounds was measured in mice bearing transplantable tumors. Survival or tumor size were measured and the results are expressed as the measurement made in the treated group (T) divided by the measurement made in the vehicle treated control group (C). The tumor model used in this assay is Sarcoma M5076 (subcutaneous) in B6D2F1 (BDF1) mice

Where [1] appears, read: endpoint: median survival time, dose: 50.0 mg/kg/injection, schedule: Q01DX009 (ip), vehicle: saline with Tween-80, higher = longer survival.
Where [2] appears, read: endpoint: median survival time, dose: 100.0 mg/kg/injection, schedule: Q01DX009 (ip), vehicle: saline with Tween-80, higher = longer survival.
The mark [3] stands for this setting: endpoint: median survival time, dose: 200.0 mg/kg/injection, schedule: Q01DX009 (ip), vehicle: saline with Tween-80, higher = longer survival.
[4] abbreviates: endpoint: median tumor weight (est.), dose: 50.0 mg/kg/injection, schedule: Q01DX009 (ip), vehicle: saline with Tween-80, higher = larger tumour.
Where [5] appears, read: endpoint: median tumor weight (est.), dose: 100.0 mg/kg/injection, schedule: Q01DX009 (ip), vehicle: saline with Tween-80, higher = larger tumour.
Setting [6] is: endpoint: median tumor weight (est.), dose: 200.0 mg/kg/injection, schedule: Q01DX009 (ip), vehicle: saline with Tween-80, higher = larger tumour.

As to `Cc1c2ccncc2c(C)c2c1[nH]c1ccccc12`, the T/C is 100 % of control (endpoint: mean tumor weight, dose: 12.5 mg/kg/injection, schedule: Q02DX011 (ip), vehicle: saline, higher = larger tumour); 55 % of control (endpoint: mean tumor weight, dose: 12.5 mg/kg/injection, schedule: Q02DX011 (ip), vehicle: water, higher = larger tumour); 65 % of control (endpoint: mean tumor weight, dose: 25.0 mg/kg/injection, schedule: Q02DX011 (ip), vehicle: saline, higher = larger tumour); 36 % of control (endpoint: mean tumor weight, dose: 50.0 mg/kg/injection, schedule: Q02DX011 (ip), vehicle: saline, higher = larger tumour); 355 % of control (endpoint: median tumor weight (est.), dose: 12.5 mg/kg/injection, schedule: Q02DX011 (ip), vehicle: saline, higher = larger tumour); 47 % of control (endpoint: median tumor weight (est.), dose: 12.5 mg/kg/injection, schedule: Q02DX011 (ip), vehicle: water, higher = larger tumour). In addition, the T/C by setting is: (endpoint: median tumor weight (est.), dose: 25.0 mg/kg/injection, schedule: Q02DX011 (ip), vehicle: saline, higher = larger tumour) 314 % of control; (endpoint: median tumor weight (est.), dose: 50.0 mg/kg/injection, schedule: Q02DX011 (ip), vehicle: saline, higher = larger tumour) 98 % of control.
Consider `NC(=O)c1cc(N2CC2)c([N+](=O)[O-])cc1[N+](=O)[O-]`, for which the T/C is, setting by setting: (endpoint: median survival time, dose: 64.0 mg/kg/injection, schedule: Q01DX001 (ip), vehicle: saline, higher = longer survival) 103 % of control (2×) and 97 % of control; (endpoint: median survival time, dose: 80.0 mg/kg/injection, schedule: Q01DX001 (ip), vehicle: saline, higher = longer survival) 95 % of control; (endpoint: median survival time, dose: 100.0 mg/kg/injection, schedule: Q01DX001 (ip), vehicle: saline, higher = longer survival) 106 % of control and 110 % of control and 95 % of control.
Take `CC(=O)[C@H]1CC[C@H]2[C@@H]3C[C@H](C)C4=CC(=O)CC[C@]4(C)[C@H]3C(=O)C[C@]12C`: the T/C runs as follows: (endpoint: mean tumor weight, dose: 100.0 mg/kg/injection, schedule: Q02DX011 (ip), vehicle: Klucel (hydroxypropylcellulose) (HPC), higher = larger tumour) 51 % of control; (endpoint: mean tumor weight, dose: 200.0 mg/kg/injection, schedule: Q02DX011 (ip), vehicle: Klucel (hydroxypropylcellulose) (HPC), higher = larger tumour) 74 % of control.
On to `CO[C@H](C(=O)[C@@H](O)[C@@H](C)O)[C@@H]1Cc2cc3cc(OC4CC(OC5CC(O)C(O)C(C)O5)C(O)C(C)O4)c(C)c(O)c3c(O)c2C(=O)[C@H]1OC1CC(OC2CC(OC3CC(C)(O)C(O)C(C)O3)C(O)C(C)O2)C(O)C(C)O1` (some centres undefined), for which the T/C reads like this: (endpoint: mean tumor weight, dose: 1.25 micrograms/kg/injection, schedule: Q02DX011 (ip), vehicle: water, higher = larger tumour) 151 % of control; (endpoint: mean tumor weight, dose: 5.0 micrograms/kg/injection, schedule: Q02DX011 (ip), vehicle: water, higher = larger tumour) 168 % of control; (endpoint: median tumor weight (est.), dose: 0.01 mg/kg/injection, schedule: Q02DX011 (ip), vehicle: water, higher = larger tumour) 99 % of control; (endpoint: median tumor weight (est.), dose: 0.05 mg/kg/injection, schedule: Q02DX011 (ip), vehicle: water, higher = larger tumour) 154 % of control.
In the case of `O=C1Nc2cnc(Cl)nc2Nc2ccccc21`, the T/C was 97 % of control under setting [1]; 94 % of control under setting [2]; 95 % of control under setting [3]; 90 % of control under setting [4]; 75 % of control under setting [5]; 86 % of control under setting [6].
Take `COc1cccc2c1C(=O)c1c(O)c3c(c(O)c1C2=O)C[C@@](O)(C(C)=O)C[C@@H]3OC1CC(N)C(O)C(C)O1` (some centres undefined): the T/C reads like this: (endpoint: median survival time, dose: 0.4 mg/kg/injection, schedule: Q02DX030 (ip), vehicle: saline, higher = longer survival) 95 % of control; (endpoint: median survival time, dose: 0.4 mg/kg/injection, schedule: Q04DX006 (ip), vehicle: saline, higher = longer survival) 106 % of control; (endpoint: median survival time, dose: 0.8 mg/kg/injection, schedule: Q02DX030 (ip), vehicle: saline, higher = longer survival) 122 % of control; (endpoint: median survival time, dose: 1.6 mg/kg/injection, schedule: Q02DX030 (ip), vehicle: saline, higher = longer survival) 104 % of control.
Regarding `CCCCCCC(=O)O[C@H]1CC[C@H]2[C@@H]3CCC4=CC(=O)CC[C@]4(C)[C@H]3CC[C@]12C`, the T/C was 43 % of control (endpoint: mean tumor weight, dose: 15.0 mg/kg/injection, schedule: Q02DX011 (ip), vehicle: Klucel (hydroxypropylcellulose) (HPC), higher = larger tumour); 68 % of control (endpoint: mean tumor weight, dose: 30.0 mg/kg/injection, schedule: Q02DX011 (ip), vehicle: Klucel (hydroxypropylcellulose) (HPC), higher = larger tumour); 124 % of control (endpoint: median tumor weight (est.), dose: 7.5 mg/kg/injection, schedule: Q02DX011 (ip), vehicle: Klucel (hydroxypropylcellulose) (HPC), higher = larger tumour); 21 % of control (endpoint: median tumor weight (est.), dose: 15.0 mg/kg/injection, schedule: Q02DX011 (ip), vehicle: Klucel (hydroxypropylcellulose) (HPC), higher = larger tumour); 52 % of control (endpoint: median tumor weight (est.), dose: 30.0 mg/kg/injection, schedule: Q02DX011 (ip), vehicle: Klucel (hydroxypropylcellulose) (HPC), higher = larger tumour).
As to `CCC(C)C(NS(=O)(=O)c1ccc(C)cc1)C(=O)O` (centres undefined), the T/C was 87 % of control under setting [1], 92 % of control under setting [2] and 92 % of control under setting [3].
Consider `COc1ccc(/C=N/NC(=O)C(=O)Nc2ccc(Cl)c([N+](=O)[O-])c2)cc1OC`, for which the T/C is, setting by setting: under setting [1], 97 % of control; under setting [2], 88 % of control; under setting [3], 97 % of control; under setting [4], 96 % of control; under setting [5], 90 % of control; under setting [6], 86 % of control.
As for `[N-]=[N+]=CC(=O)CCC(N)C(=O)O` (centres undefined), the T/C is, setting by setting: (endpoint: median survival time, dose: 1.0 mg/kg/injection, schedule: Q04DX005 (ip), vehicle: saline, higher = longer survival) 150 % of control and 159 % of control; (endpoint: median survival time, dose: 2.0 mg/kg/injection, schedule: Q04DX005 (ip), vehicle: saline, higher = longer survival) 166 % of control and 167 % of control; (endpoint: median survival time, dose: 4.0 mg/kg/injection, schedule: Q04DX005 (ip), vehicle: saline, higher = longer survival) 181 % of control and 183 % of control; (endpoint: median survival time, dose: 8.0 mg/kg/injection, schedule: Q04DX005 (ip), vehicle: saline, higher = longer survival) 186 % of control and 188 % of control; (endpoint: median survival time, dose: 16.0 mg/kg/injection, schedule: Q04DX005 (ip), vehicle: saline, higher = longer survival) 98 % of control.
With `Nc1ccn(C2OC3COC2C3O)c(=O)n1` (centres undefined), the T/C is 89 % of control (endpoint: median survival time, dose: 50.0 mg/kg/injection, schedule: Q01DX009 (ip), vehicle: saline, higher = longer survival); 110 % of control (endpoint: median survival time, dose: 100.0 mg/kg/injection, schedule: Q01DX009 (ip), vehicle: saline, higher = longer survival); 102 % of control (endpoint: median survival time, dose: 200.0 mg/kg/injection, schedule: Q01DX009 (ip), vehicle: saline, higher = longer survival); 65 % of control (endpoint: median tumor weight (est.), dose: 100.0 mg/kg/injection, schedule: Q01DX009 (ip), vehicle: saline, higher = larger tumour); 92 % of control (endpoint: median tumor weight (est.), dose: 200.0 mg/kg/injection, schedule: Q01DX009 (ip), vehicle: saline, higher = larger tumour).
On to `O=[N+]([O-])c1nccn1CC(O)CO` (centres undefined), for which the T/C was 101 % of control and 102 % of control (endpoint: median survival time, dose: 1776.0 mg/kg/injection, schedule: Q01DX001 (ip), vehicle: saline, higher = longer survival); 102 % of control (2×) and 92 % of control (endpoint: median survival time, dose: 2500.0 mg/kg/injection, schedule: Q01DX001 (ip), vehicle: saline, higher = longer survival).
For `Nc1ncn(C2OC(CO)C(O)C2O)c(=O)n1` (centres undefined), the T/C (endpoint: median survival time, dose: 0.6 mg/kg/injection, schedule: Q04DX009 (ip), vehicle: saline, higher = longer survival) is 106 % of control; the T/C (endpoint: median survival time, dose: 1.2 mg/kg/injection, schedule: Q04DX009 (ip), vehicle: saline, higher = longer survival) was 112 % of control; the T/C (endpoint: median survival time, dose: 2.4 mg/kg/injection, schedule: Q04DX009 (ip), vehicle: saline, higher = longer survival) is 113 % of control; the T/C (endpoint: median survival time, dose: 4.8 mg/kg/injection, schedule: Q04DX009 (ip), vehicle: saline, higher = longer survival) was 111 % of control.
As for `CCc1ccc(NC(=O)/C=C\C(=O)O)cc1`, the T/C runs as follows: under setting [1], 86 % of control; under setting [2], 105 % of control; under setting [3], 91 % of control; under setting [4], 112 % of control; under setting [5], 85 % of control; under setting [6], 106 % of control.
`COc1cccc(/C=N/NP(=S)(Oc2ccc(C(C)(C)C)cc2)Oc2ccc(C(C)(C)C)cc2)c1OC`: the T/C by setting is: under setting [1], 94 % of control; under setting [2], 94 % of control; under setting [3], 100 % of control; under setting [4], 122 % of control; under setting [5], 100 % of control; under setting [6], 74 % of control.
